# Assay results taken from ChEMBL document CHEMBL4382235, “Design, synthesis and biological evaluation of novel 1-phenyl phenanthridin-6(5H)-one derivatives as anti-tumor agents targeting TOPK” (Eur J Med Chem, 2019).
# Assays:
# Experiment in all cases: cells
# A549 = conditions: Homo sapiens, A549, 72 h
# Description: Antiproliferative activity against human A549 cells after 72 hrs by MTT assay
# HCT-15 = conditions: Homo sapiens, HCT-15, 72 h
# Description: Antiproliferative activity against human HCT15 cells after 72 hrs by MTT assay
# HCT-116 = conditions: Homo sapiens, HCT-116, 72 h
# Description: Antiproliferative activity against human HCT116 cells after 72 hrs by MTT assay
SMILES,IC50 (A549),IC50 (HCT-15),IC50 (HCT-116)
Cc1cc(O)c(-c2ccc([C@@H](C)N)cc2)c2c1[nH]c(=O)c1c(O)cccc12,82.5 nM,96.7 nM,102 nM
Cc1cc(O)c(-c2ccc([C@@H](C)CN)cc2)c2c1[nH]c(=O)c1c(N(C)C)cccc12,> 1000 nM,,> 1000 nM
Cc1cc(O)c(-c2ccc(C3(CN(C)C)CC3)cc2)c2c1[nH]c(=O)c1c(O)cccc12,406 nM,,141 nM
Cc1cc(O)c(-c2ccc([C@@H](C)N)cc2)c2c1[nH]c(=O)c1ccccc12,920 nM,> 1000 nM,> 1000 nM
CN(C)CC1(c2ccc(-c3c(O)cc(Cl)c4[nH]c(=O)c5c(O)cccc5c34)cc2)CC1,898 nM,,> 1000 nM
C[C@@H](CN(C)C)c1ccc(-c2c(O)cc(Cl)c3[nH]c(=O)c4ccccc4c23)cc1,> 1000 nM,> 1000 nM,> 1000 nM
Cc1cc(O)c(-c2ccc([C@@H](C)CN)cc2)c2c1[nH]c(=O)c1c(F)cccc12,110 nM,> 1000 nM,438 nM
C[C@@H](N)c1ccc(-c2c(O)cc(Cl)c3[nH]c(=O)c4c(O)cccc4c23)cc1,554 nM,,720 nM
Cc1cc(O)c(-c2ccc([C@@H](C)N)cc2)c2c1[nH]c(=O)c1c(C)cccc12,187 nM,505 nM,242 nM
COc1cc(C)c2[nH]c(=O)c3ccccc3c2c1-c1ccc([C@@H](C)CN)cc1,360 nM,278 nM,357 nM
Cc1cc(O)c(-c2ccc([C@@H](C)CN)cc2)c2c1[nH]c(=O)c1sccc12,19.5 nM,187 nM,18.9 nM
Cc1cc(O)c(-c2ccc(C3(CN)CC3)cc2)c2c1[nH]c(=O)c1c(O)cccc12,136 nM,,44.7 nM
Cc1cc(O)c(-c2ccc([C@@H](C)CN(C)C)cc2)c2c1[nH]c(=O)c1c(O)cccc12,113 nM,76 nM,215 nM
COc1cc(C)c2[nH]c(=O)c3ccccc3c2c1-c1ccc([C@@H](C)N)cc1,> 1000 nM,,> 1000 nM
C[C@@H](CN(C)C)c1ccc(-c2c(O)cc(Cl)c3[nH]c(=O)c4c(O)cccc4c23)cc1,554 nM,,534 nM
Cc1cc(O)c(-c2ccc([C@@H](C)N(C)C)cc2)c2c1[nH]c(=O)c1c(O)cccc12,128 nM,162 nM,396 nM
C[C@@H](CN)c1ccc(-c2c(O)cc(Cl)c3[nH]c(=O)c4ccccc4c23)cc1,> 1000 nM,309 nM,636 nM
Cc1ccc2c(c1)c(=O)[nH]c1c(C)cc(O)c(-c3ccc([C@@H](C)N(C)C)cc3)c12,> 1000 nM,,> 1000 nM
C[C@@H](CN)c1ccc(-c2c(O)cc(Cl)c3[nH]c(=O)c4c(O)cccc4c23)cc1,103 nM,,372 nM
Cc1ccc2c(c1)c(=O)[nH]c1c(C)cc(O)c(-c3ccc([C@@H](C)CN(C)C)cc3)c12,> 1000 nM,,830 nM
C[C@H](c1ccc(-c2c(O)cc(Cl)c3[nH]c(=O)c4c(O)cccc4c23)cc1)N(C)C,516 nM,,> 1000 nM
Cc1ccc2c(c1)c(=O)[nH]c1c(C)cc(O)c(-c3ccc([C@@H](C)CN)cc3)c12,> 1000 nM,,962 nM
